Data from patent publication US10676471B2, “Cycloalkyl-linked diheterocycle derivatives” (Pfizer Inc., priority 2014, dated 2020).

test system: BT20 Cell; assay: Cancer Cell Lysate Total L-Glutamate Assay; format: cell-based; details: Homo sapiens, BT-20, 2 h, total L-glutamate in cell lysate, BT20 cells, 2 hour incubation with test compound
Description: Cancer Cell Lysate Total L-Glutamate Assay
Cancer cell lines (BT20, HCT116, SKOV3, HCC70, SUM149, MDA-MB-231, etc.) were plated in 96 well plates and were used for the total L-glutamate assay when the monolayer was ca. 80% confluent. The media was changed and fresh media containing L-glutamine was added to the 96 well plates, just before incubation of the cells with test compound. The test compound was diluted in 100% DMSO using a two-fold or three-fold serial dilution. Small volumes of the dilutions of test compound were added to the 96 well plates so the final DMSO concentration was 0.5% v/v in the cell culture medium. The cells were incubated at 37° C., 5% CO2, and 95% air for 2 hours. Following the 2 hour incubation, the cells were washed with water 2 times. After the last water wash, 100 μL of 50 mM Tris-HCl pH 7.4 and 0.01% Tween-20 was added to each well and the plate was frozen at −80° C. The 96 well plate was frozen and thawed a total of 3 times and then sonicated for 5 min at 4° C. in a bath sonicator. Following sonication, the 96 well plate was centrifuged for 5 min at 1000 rpm and 10 μL of the supernatant was transferred to a 384 well assay plate.
Total L-glutamate (L-glutamic acid) in the cell lysis supernatant was detected using glutamate oxidase, horseradish peroxidase and Amplex Red reagent (10-acetyl-3,7-dihydroxy phenoxazine, Invitrogen # A22177). In this assay, L-glutamate was oxidized by glutamate oxidase to produce alpha-ketoglutarate (2-oxopentane dioic acid), NH3 and H202. The H2O2 (hydrogen peroxide) was used by horseradish peroxidase (HRP) to oxidize the Amplex Red Reagent to resorufin which is a fluorescent molecule. When resorufin is excited with light with a wavelength 530-560 nm, it emits light at approximately 585 nm. For detection of total L-glutamate in 10 μL of lysate, 15 μL of an enzyme mixture was added to each well of the 384 well assay plate. The enzyme mixture consisted of 50 mM Tris-HCl pH 7.4, 0.01% Tween-20, 50 μM Amplex Red reagent (final concentration), 0.04 U/mL L-glutamate oxidase (final concentration), and 0.125 U/mL HRP (final concentration). The 384 well assay plate was incubated at room temperature for 5 min and then the fluorescence intensity of each well was measured at 585 nm using a 530-560 nm excitation wavelength in a plate based fluorimeter such as an LJL Analyst or a Tecan Infinite plate reader. Standard curves were constructed for this assay using dilutions of a L-glutamate standard. IC50 were calculated by plotting the relative fluorescent units vs log of the inhibitor concentration and fitting the data to the four parameter logistic equation.
Reference: Chapman J. and Zhou M. (1999) Microplate-based fluorometric methods for the enzymatic determination of I-glutamate: application in measuring I-glutamate in food samples. Analytica Chim Acta 402:47-52.

Row | SMILES | IC50 [nM]
1 | Cn1ccc(CC(=O)Nc2nnc([C@@H]3CC[C@H](Cc4ccc(NC(=O)Cc5ccccn5)nn4)C3)s2)n1 (single isomer, unassigned) [Example 127, 2-(1-methyl-1H-pyrazol-3-yl)-N-{5-[(cis)-3-({6-[(pyridin-2-ylacetyl)amino]pyridazin-3-yl}methyl)cyclopentyl]-1,3,4-thiadiazol-2-yl}acetamide] | 0.7
2 | O=C(Cc1ccccn1)Nc1ccc(CC2CCC(c3nnc(NC(=O)C[C@H]4CCCO4)s3)C2)nn1 (mixture of isomers) [Example 129, (rac)-2-(pyridin-2-yl)-N-(6-{[(cis)-3-(5-{[(2R)-tetrahydrofuran-2-ylacetyl]amino}-1,3,4-thiadiazol-2-yl)cyclopentyl]methyl}pyridazin-3-yl)acetamide] | 2.2
3 | O=C(Cc1ccccn1)Nc1nnc(C[C@H]2C[C@@H](c3nnc(NC(=O)Cc4ccccn4)s3)C2)s1 (single isomer, unassigned) [Example 22, 2-(pyridin-2-yl)-N-{5-[(cis-3-{5-[(pyridin-2-ylacetyl)amino]-1,3,4-thiadiazol-2-yl}cyclobutyl)methyl]-1,3,4-thiadiazol-2-yl}acetamide] | 1.4
4 | O=C(Cc1ccccc1)Nc1nnc(C[C@H]2CC[C@@H](c3nnc(NC(=O)Cc4ccccc4)s3)C2)s1 (single isomer, unassigned) [Example 10] | 33.3
5 | Nc1nnc(C[C@@H]2CC[C@H](c3nnc(N)s3)C2)s1 (single isomer, unassigned) [Example 40] | 4580
6 | C[C@H](C(=O)Nc1nnc([C@H]2CC[C@@H](Cc3nnc(NC(=O)[C@H](C)c4cccnc4)s3)C2)s1)c1cccnc1 (single isomer, unassigned) [Example 35, 2-(pyridin-3-yl)-N-(5-{[(cis)-3-(5-{[2-(pyridin-3-yl)propanoyl]amino}-1,3,4-thiadiazol-2-yl)cyclopentyl]methyl}-1,3,4-thiadiazol-2-yl)propanamide] | 50.7
7 | Nc1nnc(CC2CC[C@@H](c3nnc(NC(=O)Cc4ccccc4)s3)C2)s1 (single isomer, unassigned) [Example 65, N-(5-{(cis)-3-[(5-amino-1,3,4-thiadiazol-2-yl)methyl]cyclopentyl}-1,3,4-thiadiazol-2-yl)-2-phenylacetamide] | 1820
8 | CC(=O)Nc1nnc(C[C@@H]2CC[C@H](c3nnc(NC(=O)Cc4ccncn4)s3)C2)s1 (single isomer, unassigned) [Example 20] | 137
9 | CC(=O)Nc1nnc([C@H]2CC[C@@H](Cc3nnc(NC(=O)Cc4ccccn4)s3)C2)s1 (single isomer, unassigned) [Example 17, N-[5-({(cis)-3-[5-(acetylamino)-1,3,4-thiadiazol-2-yl]cyclopentyl}methyl)-1,3,4-thiadiazol-2-yl]-2-(pyridin-2-yl)acetamide] | 12.2
10 | CC(C)C(=O)Nc1ccc(C[C@@H]2CC[C@H](c3nnc(NC(=O)Cc4ccccn4)s3)C2)nn1 (single isomer, unassigned) [Example 77, 2-methyl-N-(6-{[(cis)-3-{5-[(pyridin-2-ylacetyl)amino]-1,3,4-thiadiazol-2-yl}cyclopentyl]methyl}pyridazin-3-yl)propanamide] | 0.4

Continued, values first:

Row | IC50 [nM] | SMILES
11 | 8.5 | CC(C)C(=O)Nc1nnc(C2CC3(C2)CC(c2nnc(NC(=O)C(C)C)s2)C3)s1 (racemic) [Example 94, (rac)-N,N′-(spiro[3.3]heptane-2,6-diyldi-1,3,4-thiadiazole-5,2-diyl)bis(2-methylpropanamide)]
12 | 136 | C[C@H](C(=O)Nc1nnc(C[C@@H]2CC[C@H](c3nnc(NC(=O)[C@H](C)c4cccnc4)s3)C2)s1)c1cccnc1 (single isomer, unassigned) [Example 38, 2-(pyridin-3-yl)-N-(5-{[(cis)-3-(5-{[2-(pyridin-3-yl)propanoyl]amino}-1,3,4-thiadiazol-2-yl)cyclopentyl]methyl}-1,3,4-thiadiazol-2-yl)propanamide]
13 | 1.5 | CCC(=O)Nc1ccc(C[C@H]2CC[C@@H](c3nnc(NC(=O)Cc4ccn(C)n4)s3)C2)nn1 (single isomer, unassigned) [Example 91, N-(6-{[(cis)-3-(5-{[(1-methyl-1H-pyrazol-3-yl)acetyl]amino}-1,3,4-thiadiazol-2-yl)cyclopentyl]methyl}pyridazin-3-yl)propanamide]
14 | 6.8 | CC(=O)Nc1nnc([C@H]2CC[C@@H](Cc3nnc(NC(=O)Cc4ccc(C)nc4)s3)C2)s1 (single isomer, unassigned) [Example 53, N-[5-({(cis)-3-[5-(acetylamino)-1,3,4-thiadiazol-2-yl]cyclopentyl}methyl)-1,3,4-thiadiazol-2-yl]-2-(6-methylpyridin-3-yl)acetamide]
15 | 1280 | CC(=O)Nc1nnc([C@@H]2CC[C@H](Cc3nnc(NC(=O)Cc4ccc(C)nc4)s3)C2)s1 (single isomer, unassigned) [Example 54, N-[5-({(cis)-3-[5-(acetylamino)-1,3,4-thiadiazol-2-yl]cyclopentyl}methyl)-1,3,4-thiadiazol-2-yl]-2-(6-methylpyridin-3-yl)acetamide]
16 | 104 | CC(=O)Nc1nnc(C[C@@H]2CC[C@H](c3nnc(NC(C)=O)s3)C2)s1 (single isomer, unassigned) [Example 5]
17 | 0.7 | O=C(Cc1ccccn1)Nc1nnc([C@@H]2CC[C@H](Cc3nnc(NC(=O)c4ccccc4F)s3)C2)s1 (racemic) [Example 144, (rac)-2-fluoro-N-(5-{[(cis)-3-{5-[(pyridin-2-ylacetyl)amino]-1,3,4-thiadiazol-2-yl}cyclopentyl]methyl}-1,3,4-thiadiazol-2-yl)benzamide]
18 | 1.8 | O=C(Cc1ccccn1)Nc1ccc([C@H]2C[C@H](Cc3nnc(NC(=O)Cc4ccccn4)s3)C2)nn1 (single isomer, unassigned) [Example 123, 2-(pyridin-2-yl)-N-{5-[(trans-3-{6-[(pyridin-2-ylacetyl)amino]pyridazin-3-yl}cyclobutyl)methyl]-1,3,4-thiadiazol-2-yl}acetamide]
19 | 391 | CC(=O)Nc1nnc(CC2CCC(c3nnc(NC(=O)Cc4ccccn4)s3)C2)s1 (racemic) [Example 55, (rac)-N-{5-[(cis)-3-{[5-(acetylamino)-1,3,4-thiadiazol-2-yl]methyl}cyclopentyl]-1,3,4-thiadiazol-2-yl}-2-(pyridin-2-yl)acetamide]
20 | 2.1 | CC(C)C(=O)Nc1nnc(C2CC3(CC(c4nnc(NC(=O)Cc5ccccn5)s4)C3)C2)s1 (racemic) [Example 135, 2-methyl-N-[5-(6-{5-[(pyridin-2-ylacetyl)amino]-1,3,4-thiadiazol-2-yl}spiro[3.3]hept-2-yl)-1,3,4-thiadiazol-2-yl]propanamide]
21 | 2.8 | O=C(Cc1ccccn1)Nc1nnc(C[C@H]2CC[C@@H](c3nnc(NC(=O)Cc4ccccn4)s3)C2)s1 (racemic) [Example 152, (rac)-2-(pyridin-2-yl)-N-(5-{[(cis)-3-{5-[(pyridin-2-ylacetyl)amino]-1,3,4-thiadiazol-2-yl}cyclopentyl]methyl}-1,3,4-thiadiazol-2-yl)acetamide]
22 | 0.2 | CCC(=O)Nc1ccc(C[C@@H]2CC[C@H](c3nnc(NC(=O)Cc4ccn(C)n4)s3)C2)nn1 (single isomer, unassigned) [Example 92, N-(6-{[(cis)-3-(5-{[(1-methyl-1H-pyrazol-3-yl)acetyl]amino}-1,3,4-thiadiazol-2-yl)cyclopentyl]methyl}pyridazin-3-yl)propanamide]
